Laboratory results: article PMC4632086, “Effects and possible mechanisms of action of acacetin on the behavior and eye morphology of Drosophila models of Alzheimer’s disease” (Scientific Reports, 2015)

Experiments:
Type in all cases: in vivo, Drosophila melanogaster
[1] = tested on: elav < APP/BACE-1 flies; assay: Feeding assay (Acid red intake); conditions: 100, 300, and 500 μM; males; 2 h feeding
Method: The adult feeding assay was performed according to the methods of Wang et al.[33] and Bahadorani et al.[79]. Groups of 15 newly emerged male elav < APP/BACE-1 flies were cultured on standard media for 3 days and then starved for 20 h in vials containing three layers of Whatman no. 2 filter paper (Whatman, Maidstone, UK) soaked in DW. The flies were then transferred into vials containing media (with 0.2% Acid red) supplemented with acacetin (100, 300, and 500 μM) in 0.1% DMSO. The controls were fed with media supplemented with 0.2% Acid red and 0.1% DMSO. After 2 h of feeding, the abdomens were isolated and homogenized in 1 mL DW. After centrifugation (5000 rpm, 25 °C, 5 min), the optical density (OD) of the supernatant was measured at 505 nm, because this OD value is considered to index the amount of food intake by flies, as described by Min and Tatar[80]. All treatments were repeated three times using 15 males per replicate.

[2] = tested on: elav < APP/BACE-1 flies; assay: Climbing assay (negative geotaxis); conditions: 100, 300, and 500 μM, males
Method: The climbing activity assay was performed, as described by Wang et al.[33] and Crowther et al.[34]. Groups of 20 male elav < APP/BACE-1 flies (1, 5, 10, and 15 days old), cultured in vials as stated previously, were separately placed in an empty vial conjoined with another vial on top, and manually tapped twice. After 20 s, the flies that climbed from the bottom and crossed the 9.5 cm line were counted, and the climbing index was determined as the number of flies that climbed to the top vial relative to the total number of test flies and expressed as a percentage. The controls received 0.1% DMSO. All trials were repeated five times using 20 males per replicate.

[3] = tested on: GMR < APP/BACE-1 flies; assay: Congo red staining of amyloid plaques in compound eyes; conditions: 5- and 15-day-old flies
Method: Congo red staining was performed to detect the amyloid plaques in the Drosophila AD model. The paraffin-embedded sections described above were deparaffinized and then stained using NovaUltra Special Stain Kits (IHC World, Woodstock, MD, USA) according to the manufacturer’s instructions. Finally, the sections were dehydrated and mounted with mounting medium. The images were observed and captured using an EZ4 HD stereo microscope.

**Q.** How did the “feeding (food intake)” value [1] turn out when `COc1ccc(-c2cc(=O)c3c(O)cc(O)cc3o2)cc1` [acacetin] was run?
**A.** did not significantly affect feeding

**Q.** What about the climbing index ([2]; 1 day postemergence, vehicle 47%) of the same compound?
**A.** approximately 68%

**Q.** And the climbing index ([2]; 5 days postemergence, vehicle 39%)?
**A.** 60–66%

**Q.** And the climbing index ([2]; 10 days postemergence, vehicle 36%)?
**A.** 53–54%

**Q.** And the climbing index ([2]; 15 days postemergence, vehicle 11%)?
**A.** 27–30%

**Q.** What about the amyloid plaque deposits ([3]; 500 μM) of the same compound?
**A.** a few amyloid plaque deposits were also detected

**Q.** And the “number of amyloid deposits” value ([3]; 100 and 300 μM)?
**A.** significantly suppressed the number of amyloid deposits
